Test results reported in US20240287089A1, “Preparation and Uses of 7-Azaindenoisoquinolines” (Purdue Research Foundation, priority 0001, published 2024).

Tests used:
SF-539 (CNS) = assay: NCI-60 cytotoxicity assay; type: cell-based; conditions: Homo sapiens; SF-539 CNS; 48 h, sulforhodamine B; read-out: Comparative Cytotoxicity GI50, CNS SF-539
Experimental: (§1) The antiproliferative activities of the indenoisquinoline compounds are determined in the NCI-60 cancer cell lines of the National Cancer Institute Developmental Therapeutics Program (NCI-DTP). […] Cancer cells are incubated with the test compounds at five concentrations ranging from 100 μM to 10 nM for 48 h. After the treated cancer cells are stained with sulforhodamine B dye, the percentage growth is plotted as a function of the common logarithm of the tested compound concentration. […] The approximate average of GI50 values across the entire panel of NCI-60 cancer cell lines for each compound is recorded as the MGM value.
(§2) NCI-60 Cytotoxicity Assay. Compounds were submitted to the National Cancer Institute Developmental Therapeutic Program to determine their growth-inhibitory potentials in NCI-60 cell lines. All compounds satisfied the pre-screening proceeded into the 5-dose cell viability assay, in which cells were treated for 48 h at 5 dosages ranging from 100 μM to 10 nM.

NCI-60 cancer cell lines = assay: NCI-60 cytotoxicity assay, MGM; type: cell-based; conditions: Homo sapiens; entire panel of NCI-60 cancer cell lines; read-out: MGM (approximate average of GI50 values across the NCI-60 panel)
Experimental: as §1, §2

HOP-62 (Lung) = assay: NCI-60 cytotoxicity assay; type: cell-based, human; conditions: Homo sapiens; HOP-62 lung; 48 h, sulforhodamine B; read-out: Comparative Cytotoxicity GI50, Lung HOP-62
Experimental: as §1, §2

SN12C (Renal) = assay: NCI-60 cytotoxicity assay; type: cell-based, human; conditions: Homo sapiens; SN12C renal; 48 h, sulforhodamine B; read-out: Comparative Cytotoxicity GI50, Renal SN12C
Experimental: as §1, §2

DU-145 (Prostate) = assay: NCI-60 cytotoxicity assay; type: cell-based, human; conditions: Homo sapiens; DU-145 prostate; 48 h, sulforhodamine B; read-out: Comparative Cytotoxicity GI50, Prostate DU-145
Experimental: as §1, §2

MCF7 (Breast) = assay: NCI-60 cytotoxicity assay; type: cell-based, human; conditions: Homo sapiens; MCF7 breast; 48 h, sulforhodamine B; read-out: Comparative Cytotoxicity GI50, Breast MCE7
Experimental: as §1, §2

OVCAR-3 (Ovarian) = assay: NCI-60 cytotoxicity assay; type: cell-based, human; conditions: Homo sapiens; OVCAR-3 ovarian; 48 h, sulforhodamine B; read-out: Comparative Cytotoxicity GI50, Ovarian OVCAR-3
Experimental: as §1, §2

HCT-116 (Colon) = assay: NCI-60 cytotoxicity assay; type: cell-based, human; conditions: Homo sapiens; HCT-116 colon; 48 h, sulforhodamine B; read-out: Comparative Cytotoxicity GI50, Colon HCT-116
Experimental: as §1, §2

UACC-62 (Melanoma) = assay: NCI-60 cytotoxicity assay; type: cell-based, human; conditions: Homo sapiens; UACC-62 melanoma; 48 h, sulforhodamine B; read-out: Comparative Cytotoxicity GI50, Melanoma UACC-62
Experimental: as §1, §2

RAJI lymphoma cells = assay: MTS cell viability IC50 assay; type: cell-based; conditions: RAJI, 72 h
Experimental: Cytotoxicity Results in Raji Non-Hodgkin's Lymphoma Cells. MTS experiments were then conducted to test the anti-proliferative effects of 7-aza-8,9-methylenedioxyindenoisoquinolines in Raji cells. Cells were incubated at 2-2000 nM of each drug for 72 h, and cell viabilities were quantified using the MTS assay. […] This potency trend generally correlated with the western blot results, in which G106 and G108 […] show weaker Myc downregulation.
MTS Cell Viability IC50 Assay. Drug solutions for MTS IC50 assays of suspension cell lines were made from DMSO stocks by serial-dilutions in 1×PBS (10010-031, Gibco). To set up treatments, drug solutions were plated in triplicates to 96-well tissue culture plates, to which cell-containing media was added to a total volume of 100 μL/well. 100%-viability controls were untreated cells. 2000 cells/well were plated for all suspension cell lines except 3000 cells/well for KMS-27 and 10000 cells/well for CHLA-32. Blanks were cell-free media. Drug treatments were maintained for 72 hr at 37° C. with 5% CO2. To quantify cells, CellTiter 96 AQueous MTS Reagent Powder (G1111, Promega) was dissolved and mixed with phenazine methosulfate (PMS, Sigma-Aldrich P9625) according to manufacturer's instructions. MTS/PMS mix ([…]) was added to treatment wells, 100%-viability control wells, and blank wells. Colors were developed at 37° C. with 5% CO2 for 4 h and absorbance at 490 nm was measured by BioTek Synergy 4 system. To obtain %-viability, A490 values were corrected by blank subtraction, normalized to 100%-viability control, and averaged. Average %-viabilities were plotted against drug dosages to obtain dose-response curves. […] For adherent cell lines, the MTS IC50 assays were conducted the same way as for suspension cell lines except for cell plating and drug treatment. For cell plating, 50 μL of 2000 cells were plated in triplicates to a 96-well tissue culture plate. Cells were allowed sufficient time to become adherent. Serial-diluted drug solutions were made the same way as in the MTS IC50 assays. To set up treatments, drug solutions were mixed with media to two-fold of the final concentrations, and 50 μL of such drug-media mix was then added to 50 μL of plated cells.

[1] = biological target: 3′-TAMRA-labeled MycG4 DNA; assay: Fluorescence binding assay; conditions: 20° C., 100 mM K+ buffer, pH 7.0; read-out: Apparent Binding Affinity Kd, app
Experimental: Binding Affinity to the Myc G-Quadruplex. Binding affinity of eight 7-aza-8,9-methylenedioxyindenoisoquinolines to MycG4 was determined using a fluorescence binding assay with a 3′-TAMRA-labeled MycG4 DNA. Monitoring TAMRA emission upon drug titration afforded binding isotherms, from which apparent binding affinities, Kd,app, were derived.
Fluorescence-Based Binding Assays. Fluorescence-based binding assays were performed on a Jasco FP-8300 spectrofluorometer equipped with a temperature controller at 20° C. in a quartz cuvette with a 10 mm path length. 3′-TAMRA-labeled MycG4 DNA (Sigma-Aldrich) was diluted to 20 nM using a 75 mM KCl/25 mM potassium phosphate buffer, pH 7.0. […] Fluorescence intensity at 580 nm, the maximum for the free DNA, was plotted against drug:DNA ratio. The apparent binding dissociation constant, Kd,app, was derived for the binding of each compound. Using OriginPro software (OriginLab Corp., United States) the change in fluorescence intensity was fitted to a one-site binding equation,
where B0 is the initial fluorescence intensity, B is maximum change in fluorescence intensity, R is DNA concentration, and L is drug:DNA ratio.

For `COc1cc2c3c(n(CCCNC4CCCC4)c(=O)c2cc1OC)-c1cc2c(cc1C3=O)OCO2` [A3], the GI50 (SF-539 (CNS)) was 1.51 µM, the GI50 (NCI-60 cancer cell lines) was 2.69 µM and the GI50 (HOP-62 (Lung)) was 2.38 µM. It also gave a GI50 (SN12C (Renal)) of 1.8 µM, a GI50 (DU-145 (Prostate)) of 1.44 µM and a GI50 (MCF7 (Breast)) of 0.67 µM. It also gave a GI50 (OVCAR-3 (Ovarian)) of 1.64 µM, a GI50 (HCT-116 (Colon)) of 1.2 µM and a GI50 (UACC-62 (Melanoma)) of 13 µM.
`COc1cc2c3c(n(CCCN4CCC[C@H]4C(N)=O)c(=O)c2cc1OC)-c1nc2c(cc1C3=O)OCO2` [G106, (S)-1-(3-(2,3-dimethoxy-5,12-dioxo-5,12-dihydro-6H-[1,3]dioxolo [4″,5″:5′,6′]pyrido[3′,2′:4,5]cyclopenta[1,2-c]isoquinolin-6-yl)propyl)pyrrolidine-2-carboxamide] showed an IC50 (RAJI lymphoma cells) of 1.98 µM and a Kd [1] of 0.055 µM.
`COc1cnc2c(c1)C(=O)c1c-2n(CCCNCC2CC2)c(=O)c2cc(OC)c(OC)cc12` [A10] gave a GI50 (SF-539 (CNS)) of 1 µM, a GI50 (NCI-60 cancer cell lines) of 0.86 µM and a GI50 (HOP-62 (Lung)) of 0.67 µM. For the same compound, the GI50 (SN12C (Renal)) was 0.44 µM, the GI50 (DU-145 (Prostate)) was 0.96 µM and the GI50 (MCF7 (Breast)) was 0.16 µM. It also gave a GI50 (OVCAR-3 (Ovarian)) of 1.82 µM, a GI50 (HCT-116 (Colon)) of 0.4 µM and a GI50 (UACC-62 (Melanoma)) of 0.84 µM.
`COc1cc2c3c(n(CCCN4CCCCC4)c(=O)c2cc1OC)-c1cc2c(cc1C3=O)OCO2` [A6] was tested, and the GI50 (SF-539 (CNS)) was 1.46 µM, the GI50 (NCI-60 cancer cell lines) was 1.05 µM and the GI50 (HOP-62 (Lung)) was 1.05 µM. For the same compound, the GI50 (SN12C (Renal)) was 1.61 µM, the GI50 (DU-145 (Prostate)) was 1.37 µM and the GI50 (MCF7 (Breast)) was 0.14 µM. The GI50 (OVCAR-3 (Ovarian)) was 1.63 µM, the GI50 (HCT-116 (Colon)) was 0.42 µM and the GI50 (UACC-62 (Melanoma)) was 1.38 µM.
For `COc1cc2c3c(n(CCCNC4CCC4)c(=O)c2cc1OC)-c1cc2c(cc1C3=O)OCO2` [A2], the GI50 (SF-539 (CNS)) was 1.05 µM, the GI50 (NCI-60 cancer cell lines) was 0.87 µM and the GI50 (HOP-62 (Lung)) was 0.22 µM. For the same compound, the GI50 (SN12C (Renal)) was 1.44 µM, the GI50 (DU-145 (Prostate)) was 0.79 µM and the GI50 (MCF7 (Breast)) was 0.057 µM. For the same compound, the GI50 (OVCAR-3 (Ovarian)) was 1.38 µM, the GI50 (HCT-116 (Colon)) was 0.9 µM and the GI50 (UACC-62 (Melanoma)) was 1.4 µM.
